# From patent publication US6358885B1, “Substituted phenylheterocyclic herbicides” (Mississippi State University, priority 1992, dated 2002)
# Legend:
# Assay in all cases: Test B preemergence/postemergence greenhouse plant response rating 0 to 10
# barnyardgrass = format: in vivo, Echinochloa crus-galli; settings: 0 to 10 scale
# Description: (§1) Seeds of barley (Hordeum vulgare), barnyardgrass (Echinochloa crus-galli), bedstraw (Galium aparine), blackgrass (Alopecurus myosuroides), […] (Bromus secalinus), chickweed (Stellaria media), cocklebur (Xanthium pensylvanicum), corn (Zea mays), cotton (Gossypium hirsutum), crabgrass (Digitaria spp.), giant foxtail (Setaria faberii), lambsquarters (Chenopodium album), morningglory (Ipomoea hederacea), rape (Brassica napus), rice (Oryza sativa), sorghum (Sorghum bicolor), soybean (Glycine max), sugar beet (Beta vulgaris), velvetleaf (Abutilon theophrasti), wheat (Triticum aestivum), wild buckwheat (Polygonum convolvulus), and wild oat (Avena fatua) and purple nutsedge. (Cyperus rotundus) tubers were planted and treated preemergence with test chemicals dissolved in a non-phytotoxic solvent. At the same time, these crop and weed species were also treated with postemergence applications of test chemicals. Plants ranged in height from two to eighteen cm (one to four leaf stage) for postemergence treatments. Treated plants and controls were maintained in a greenhouse for twelve to sixteen days, after which all species were compared to controls and visually evaluated. […] A dash (-) response means no test result.
# sugar beet = format: in vivo, Beta vulgaris; settings: 0 to 10 scale
# In short: (§2)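 Postemergence treatment of plants two to eighteen cm tall ran alongside preemergence treatment of planted seed, each using compound in a non-phytotoxic solvent.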
# bedstraw = format: in vivo, Galium aparine; settings: 0 to 10 scale
# In short: as §2
# wild buckwheat = format: in vivo, Polygonum convolvulus; settings: 0 to 10 scale
# In short: as §2
# barley = format: in vivo, Hordeum vulgare; settings: 0 to 10 scale
# In short: as §2
# cheatgrass = format: in vivo, Bromus secalinus; settings: 0 to 10 scale
# In short: as §2
# rape = format: in vivo, Brassica napus; settings: 0 to 10 scale
# In short: as §2
# morningglory = format: in vivo, Ipomoea hederacea; settings: 0 to 10 scale
# Description: as §1
# lambsquarters = format: in vivo, Chenopodium album; settings: 0 to 10 scale
# In short: as §2
# wild oat = format: in vivo, Avena fatua; settings: 0 to 10 scale
# In short: as §2
# wheat = format: in vivo, Triticum aestivum; settings: 0 to 10 scale
# In short: as §2
# purple nutsedge = format: in vivo, Cyperus rotundus; settings: 0 to 10 scale
# Description: as §1
# cotton = format: in vivo, Gossypium hirsutum; settings: 0 to 10 scale
# Description: as §1
# velvetleaf = format: in vivo, Abutilon theophrasti; settings: 0 to 10 scale
# Description: as §1
# sorghum = format: in vivo, Sorghum bicolor; settings: 0 to 10 scale
# Description: as §1
# crabgrass = format: in vivo, Digitaria spp.; settings: PREEMERGENCE, 0 to 10 scale
# Description: as §1
# corn = format: in vivo, Zea mays; settings: 0 to 10 scale
# Description: as §1
# chickweed = format: in vivo, Stellaria media; settings: 0 to 10 scale
# In short: as §2
# rice = format: in vivo, Oryza sativa; settings: 0 to 10 scale
# Description: as §1
# giant foxtail = format: in vivo, Setaria faberii; settings: 0 to 10 scale
# Description: as §1
# soybean = format: in vivo, Glycine max; settings: 0 to 10 scale
# Description: as §1
# cocklebur = format: in vivo, Xanthium pensylvanicum; settings: 0 to 10 scale
# Description: as §1
# blackgrass = format: in vivo, Alopecurus myosuroides; settings: 0 to 10 scale
# In short: as §2
structure (smiles),measurement,setting,value
CC(=O)c1cc(-c2nn3c(c2Cl)CCCC3)c(F)cc1Cl [Compound 45],"Plant response rating, Barnyardgrass","barnyardgrass; POSTEMERGENCE, Rate 50 g/ha",3
same,"Plant response rating, Barnyardgrass","barnyardgrass; POSTEMERGENCE, Rate 200 g/ha",5
same,"Plant response rating, Barnyardgrass","barnyardgrass; PREEMERGENCE, Rate 50 g/ha",0
same,"Plant response rating, Barnyardgrass","barnyardgrass; Rate 200 g/ha, PREEMERGENCE",5
same,"Plant response rating, Sugar beet","sugar beet; POSTEMERGENCE, Rate 50 g/ha",7
same,"Plant response rating, Sugar beet","sugar beet; PREEMERGENCE, Rate 50 g/ha",7
same,"Plant response rating, Sugar beet","sugar beet; Rate 200 g/ha, POSTEMERGENCE",10
same,"Plant response rating, Sugar beet","sugar beet; Rate 200 g/ha, PREEMERGENCE",9
same,"Plant response rating, Bedstraw","bedstraw; POSTEMERGENCE, Rate 50 g/ha",8
same,"Plant response rating, Bedstraw","bedstraw; POSTEMERGENCE, Rate 200 g/ha",10
same,"Plant response rating, Bedstraw","bedstraw; PREEMERGENCE, Rate 50 g/ha",2
same,"Plant response rating, Bedstraw","bedstraw; Rate 200 g/ha, PREEMERGENCE",4
same,"Plant response rating, Wild buckwheat","wild buckwheat; POSTEMERGENCE, Rate 50 g/ha",10
same,"Plant response rating, Wild buckwheat","wild buckwheat; PREEMERGENCE, Rate 50 g/ha",3
same,"Plant response rating, Wild buckwheat","wild buckwheat; Rate 200 g/ha, POSTEMERGENCE",10
same,"Plant response rating, Wild buckwheat","wild buckwheat; Rate 200 g/ha, PREEMERGENCE",10
same,"Plant response rating, Barley","barley; POSTEMERGENCE, Rate 50 g/ha",4
same,"Plant response rating, Barley","barley; POSTEMERGENCE, Rate 200 g/ha",3
same,"Plant response rating, Barley","barley; PREEMERGENCE, Rate 50 g/ha",0
same,"Plant response rating, Barley","barley; Rate 200 g/ha, PREEMERGENCE",2
same,"Plant response rating, Cheatgrass","cheatgrass; POSTEMERGENCE, Rate 50 g/ha",4
same,"Plant response rating, Cheatgrass","cheatgrass; POSTEMERGENCE, Rate 200 g/ha",6
same,"Plant response rating, Cheatgrass","cheatgrass; PREEMERGENCE, Rate 50 g/ha",2
same,"Plant response rating, Cheatgrass","cheatgrass; Rate 200 g/ha, PREEMERGENCE",2
same,"Plant response rating, Rape","rape; POSTEMERGENCE, Rate 50 g/ha",3
same,"Plant response rating, Rape","rape; PREEMERGENCE, Rate 50 g/ha",2
same,"Plant response rating, Rape","rape; Rate 200 g/ha, POSTEMERGENCE",10
same,"Plant response rating, Rape","rape; Rate 200 g/ha, PREEMERGENCE",7
same,"Plant response rating, Morningglory","morningglory; POSTEMERGENCE, Rate 50 g/ha",8
same,"Plant response rating, Morningglory","morningglory; PREEMERGENCE, Rate 50 g/ha",2
same,"Plant response rating, Morningglory","morningglory; Rate 200 g/ha, POSTEMERGENCE",9
same,"Plant response rating, Morningglory","morningglory; Rate 200 g/ha, PREEMERGENCE",4
same,"Plant response rating, Lambsquarter","lambsquarters; POSTEMERGENCE, Rate 50 g/ha",10
same,"Plant response rating, Lambsquarter","lambsquarters; PREEMERGENCE, Rate 50 g/ha",10
same,"Plant response rating, Lambsquarter","lambsquarters; Rate 200 g/ha, POSTEMERGENCE",10
same,"Plant response rating, Lambsquarter","lambsquarters; Rate 200 g/ha, PREEMERGENCE",10
same,"Plant response rating, Wild oat","wild oat; POSTEMERGENCE, Rate 50 g/ha",2
same,"Plant response rating, Wild oat","wild oat; PREEMERGENCE, Rate 50 g/ha",2
same,"Plant response rating, Wild oat","wild oat; Rate 200 g/ha, POSTEMERGENCE",3
same,"Plant response rating, Wheat","wheat; POSTEMERGENCE, Rate 50 g/ha",3
same,"Plant response rating, Wheat","wheat; PREEMERGENCE, Rate 50 g/ha",2
same,"Plant response rating, Wheat","wheat; Rate 200 g/ha, POSTEMERGENCE",8
same,"Plant response rating, Wheat","wheat; Rate 200 g/ha, PREEMERGENCE",5
same,"Plant response rating, Nutsedge","purple nutsedge; PREEMERGENCE, Rate 50 g/ha",0
same,"Plant response rating, Nutsedge","purple nutsedge; Rate 200 g/ha, POSTEMERGENCE",6
same,"Plant response rating, Nutsedge","purple nutsedge; Rate 200 g/ha, PREEMERGENCE",0
same,"Plant response rating, Cotton","cotton; POSTEMERGENCE, Rate 50 g/ha",10
same,"Plant response rating, Cotton","cotton; POSTEMERGENCE, Rate 200 g/ha",10
same,"Plant response rating, Cotton","cotton; PREEMERGENCE, Rate 50 g/ha",0
same,"Plant response rating, Cotton","cotton; Rate 200 g/ha, PREEMERGENCE",0
same,"Plant response rating, Velvetleaf","velvetleaf; POSTEMERGENCE, Rate 50 g/ha",9
same,"Plant response rating, Velvetleaf","velvetleaf; PREEMERGENCE, Rate 50 g/ha",2
same,"Plant response rating, Velvetleaf","velvetleaf; Rate 200 g/ha, POSTEMERGENCE",10
same,"Plant response rating, Velvetleaf","velvetleaf; Rate 200 g/ha, PREEMERGENCE",0
same,"Plant response rating, Sorghum","sorghum; POSTEMERGENCE, Rate 50 g/ha",4
same,"Plant response rating, Sorghum","sorghum; PREEMERGENCE, Rate 50 g/ha",0
same,"Plant response rating, Sorghum","sorghum; Rate 200 g/ha, POSTEMERGENCE",5
same,"Plant response rating, Sorghum","sorghum; Rate 200 g/ha, PREEMERGENCE",1
same,"Plant response rating, Crabgrass",crabgrass; Rate 50 g/ha,0
same,"Plant response rating, Crabgrass",crabgrass; Rate 200 g/ha,6
same,"Plant response rating, Corn","corn; POSTEMERGENCE, Rate 50 g/ha",5
same,"Plant response rating, Corn","corn; POSTEMERGENCE, Rate 200 g/ha",5
same,"Plant response rating, Corn","corn; PREEMERGENCE, Rate 50 g/ha",0
same,"Plant response rating, Corn","corn; Rate 200 g/ha, PREEMERGENCE",1
same,"Plant response rating, Chickweed","chickweed; POSTEMERGENCE, Rate 50 g/ha",8
same,"Plant response rating, Chickweed","chickweed; POSTEMERGENCE, Rate 200 g/ha",7
same,"Plant response rating, Chickweed","chickweed; PREEMERGENCE, Rate 50 g/ha",3
same,"Plant response rating, Chickweed","chickweed; Rate 200 g/ha, PREEMERGENCE",2
same,"Plant response rating, Rice","rice; POSTEMERGENCE, Rate 50 g/ha",6
same,"Plant response rating, Rice","rice; PREEMERGENCE, Rate 50 g/ha",0
same,"Plant response rating, Rice","rice; Rate 200 g/ha, POSTEMERGENCE",6
same,"Plant response rating, Rice","rice; Rate 200 g/ha, PREEMERGENCE",3
same,"Plant response rating, Giant foxtail","giant foxtail; POSTEMERGENCE, Rate 50 g/ha",5
same,"Plant response rating, Giant foxtail","giant foxtail; PREEMERGENCE, Rate 50 g/ha",2
same,"Plant response rating, Giant foxtail","giant foxtail; Rate 200 g/ha, POSTEMERGENCE",5
same,"Plant response rating, Giant foxtail","giant foxtail; Rate 200 g/ha, PREEMERGENCE",5
same,"Plant response rating, Soybean","soybean; POSTEMERGENCE, Rate 50 g/ha",8
same,"Plant response rating, Soybean","soybean; PREEMERGENCE, Rate 50 g/ha",0
same,"Plant response rating, Soybean","soybean; Rate 200 g/ha, POSTEMERGENCE",8
same,"Plant response rating, Soybean","soybean; Rate 200 g/ha, PREEMERGENCE",2
same,"Plant response rating, Cocklebur","cocklebur; POSTEMERGENCE, Rate 50 g/ha",7
same,"Plant response rating, Cocklebur","cocklebur; POSTEMERGENCE, Rate 200 g/ha",8
same,"Plant response rating, Cocklebur","cocklebur; PREEMERGENCE, Rate 50 g/ha",0
same,"Plant response rating, Cocklebur","cocklebur; Rate 200 g/ha, PREEMERGENCE",4
same,"Plant response rating, Blackgrass","blackgrass; POSTEMERGENCE, Rate 50 g/ha",6
same,"Plant response rating, Blackgrass","blackgrass; POSTEMERGENCE, Rate 200 g/ha",3
same,"Plant response rating, Blackgrass","blackgrass; PREEMERGENCE, Rate 50 g/ha",2
same,"Plant response rating, Blackgrass","blackgrass; Rate 200 g/ha, PREEMERGENCE",3
